Experimental data taken from patent US20130204033A1, “ANTIPROLIFERATIVE COMPOUNDS, CONJUGATES THEREOF, METHODS THEREFOR, AND USES THEREOF” (Medarex, Inc., priority 2009, published 2013).
pEC50: −log10 of the molar value.

Columns and labels:
Type in all cases: cell-based, human
[1] = test system: 786-O; assay: ATP luminescence proliferation assay, 786-O; settings: ATP luminescence, 786-O
Description: (§1) This example generally describes the procedures used to assay the antiproliferative activity of compounds of this invention or their conjugates. Human tumor cell lines were obtained from the American Type Culture Collection (ATCC), P.O. Box 1549, Manassas, Va. 20108, USA, and cultured according to instruction from the ATCC. Cells were seeded at 1.0×10^3 or 1.0×10^4 cells/well in 96-well plates for 3 h for ATP assays or ^3H thymidine assays, respectively. 1:3 serial dilutions of free (unconjugated) compounds or their conjugates were added to the wells. Plates were allowed to incubate for 24 to 72 h. The ^3H thymidine plates were pulsed with 1.0 μCi of ^3H-thymidine per well for the last 24 hours of the total incubation period, harvested, and read on a Top Count Scintillation Counter (Packard Instruments, Meriden, Conn.). ATP levels in the ATP plates were measured using the […]-GLO® Luminescent Cell Viability kit following the manufacturer's manual and read on a GLOMAX® 20/20 luminometer (both from Promega, Madison, Wis., USA). The EC50 values—the concentration at which an agent inhibits or reduces cell proliferation by 50% —were determined using PRISM™ software, version 4.0 (GraphPad Software, La Jolla, Calif., USA).
(§2) Using the ^3H thymidine or the ATP luminescence assay, or both, the activities of compounds of this invention were assayed against the following cancer cell lines: HCT-15 (colorectal cancer, multi-drug resistant (MDR)); Hep3B (liver cancer); LNCaP (prostate cancer, androgen receptor positive (AR^+)); MDA-MB-231 (breast cancer, estrogen receptor, progesterone receptor, and Her2 negative (triple negative)); A2058 (melanoma); U-87 MG (glioblastoma); NCI-H460 (NSCLC); A549 (NSCLC); HPAC (pancreatic cancer, primary); PC3 (prostate cancer, AR); BT474 (breast cancer, Her2 highly positive (Her2hi)); SKOV3 (ovarian cancer, Her2hi); 786-O (renal cancer); UO-31 (renal cancer, MDR); NCI-H740 (SCLC); DMS53 (SCLC); SK-BR3 (breast cancer, Her2hi); ZR-75 (breast cancer, estrogen receptor positive); OVCAR3 (ovarian cancer); HL-60 (APL); OVCAR8/Adr (ovarian cancer, MDR); CEM-Cl (ALL); Nomo-1 (AML); RPMI-8226 (MM)); Raji (lymphoma); SW-480 (colorectal cancer, metastatic); SW-620 (colorectal cancer); and H226 (lung cancer). (Not all compounds were assayed against all cell lines.)
(§3) FIGS. 12a and 12b show illustrative plots for ATP luminescence proliferation assays for a second set of compounds of this invention, against HL-60 and 786-O cells, respectively, with an incubation period of 72 h. FIGS. 12c and 12d show the plots for ^3H thymidine proliferation assays for the same set of compounds, again against HL-60 and 786-O cells, respectively, with a 72 h incubation period. In each instance, doxorubicin was used as a comparative compound.
(§4) Table 3 provides the data for the ATP luminescence proliferation assays, with an incubation period of 48, 72, or 96 h, as noted.

[2] = test system: HCT-15; assay: 3H thymidine proliferation assay, HCT-15; settings: Homo sapiens, HCT-15, read-out: EC50, HCT-15, 3H thymidine method, 72 h incubation
Description: as §1, §2
(§5) Table 2 provides the data for proliferation assays using the ^3H thymidine method, with an incubation period of 72 h.

[3] = test system: Hep3B; assay: 3H thymidine proliferation assay, Hep3B; settings: Homo sapiens, Hep3B, read-out: EC50, Hep3B, 3H thymidine method, 72 h incubation
Description: as §1, §2, §5

[4] = test system: LNCaP; assay: 3H thymidine proliferation assay, LNCaP; settings: Homo sapiens, LNCaP, read-out: EC50, LNCaP, 3H thymidine method, 72 h incubation
Description: as §1, §2, §5

[5] = test system: MDA-MB-231; assay: 3H thymidine proliferation assay, MDA-MB-231; settings: Homo sapiens, MDA-MB-231, read-out: EC50, MDA-MB-231, 3H thymidine method, 72 h incubation
Description: as §1, §2, §5

[6] = test system: A2058; assay: 3H thymidine proliferation assay, A2058; settings: Homo sapiens, A2058; 3H thymidine method, 72 h incubation
Description: as §1, §2, §5

[7] = test system: U-87 MG; assay: 3H thymidine proliferation assay, U-87 MG; settings: Homo sapiens, U-87 MG, read-out: EC50, U-87 MG, 3H thymidine method, 72 h incubation
Description: as §1, §2, §5

[8] = test system: NCI-H460; assay: 3H thymidine proliferation assay, NCI-H460; settings: Homo sapiens, NCI-H460, read-out: EC50, NCI-H460, 3H thymidine method, 72 h incubation
Description: as §1, §2, §5

[9] = test system: A549; assay: 3H thymidine proliferation assay, A549; settings: Homo sapiens, A549, read-out: EC50, A549, 3H thymidine method, 72 h incubation
Description: as §1, §2, §5

[10] = test system: HPAC; assay: 3H thymidine proliferation assay, HPAC; settings: Homo sapiens, HPAC, read-out: EC50, HPAC, 3H thymidine method, 72 h incubation
Description: as §1, §2, §5

[11] = test system: PC3; assay: 3H thymidine proliferation assay, PC3; settings: Homo sapiens, PC-3, read-out: EC50, PC3, 3H thymidine method, 72 h incubation
Description: as §1, §2, §5

[12] = test system: BT474; assay: 3H thymidine proliferation assay, BT474; settings: Homo sapiens, BT-474, read-out: EC50, BT474, 3H thymidine method, 72 h incubation
Description: as §1, §2, §5

[13] = test system: SKOV3; assay: 3H thymidine proliferation assay, SKOV3; settings: Homo sapiens, SK-OV-3, read-out: EC50, SKOV3, 3H thymidine method, 72 h incubation
Description: as §1, §2, §5

[14] = test system: 786-O; assay: 3H thymidine proliferation assay, 786-O; settings: Homo sapiens, 786-0, read-out: EC50, 786-O, 3H thymidine method, 72 h incubation
Description: as §1, §2, §5

[15] = test system: UO-31; assay: 3H thymidine proliferation assay, UO-31; settings: Homo sapiens, UO-31, read-out: EC50, UO-31, 3H thymidine method, 72 h incubation
Description: as §1, §2, §5

[16] = test system: H740; assay: 3H thymidine proliferation assay, H740; settings: Homo sapiens, read-out: EC50, H740, 3H thymidine method, 72 h incubation
Description: as §1, §2, §5

[17] = test system: DMS53; assay: 3H thymidine proliferation assay, DMS53; settings: Homo sapiens, DMS-53, read-out: EC50, DMS53, 3H thymidine method, 72 h incubation
Description: as §1, §2, §5

[18] = test system: SK-BR3; assay: 3H thymidine proliferation assay, SK-BR3; settings: Homo sapiens, SK-BR-3; 3H thymidine method, 72 h incubation
Description: as §1, §2, §5

[19] = test system: ZR-75; assay: 3H thymidine proliferation assay, ZR-75; settings: Homo sapiens, ZR75, read-out: EC50, ZR-75, 3H thymidine method, 72 h incubation
Description: as §1, §2, §5

[20] = test system: OVCAR3; assay: 3H thymidine proliferation assay, OVCAR3; settings: Homo sapiens, OVCAR-3, read-out: EC50, OVCAR3, 3H thymidine method, 72 h incubation
Description: as §1, §2, §5

[21] = test system: HL-60; assay: 3H thymidine proliferation assay, HL-60; settings: Homo sapiens, HL-60, read-out: EC50, HL-60, 3H thymidine method, 72 h incubation
Description: as §1, §2, §5

[22] = test system: OVCAR8; assay: 3H thymidine proliferation assay, OVCAR8; settings: Homo sapiens, OVCAR-8, read-out: EC50, OVCAR8, 3H thymidine method, 72 h incubation
Description: as §1, §2, §5

[23] = test system: CEM-C1; assay: 3H thymidine proliferation assay, CEM-C1; settings: Homo sapiens, CEM/C1, read-out: EC50, CEM-C1, 3H thymidine method, 72 h incubation
Description: as §1, §2, §5

[24] = test system: Nomo-1; assay: 3H thymidine proliferation assay, Nomo-1; settings: Homo sapiens, NOMO-1, read-out: EC50, Nomo-1, 3H thymidine method, 72 h incubation
Description: as §1, §2, §5

[25] = test system: RPMI-8226; assay: 3H thymidine proliferation assay, RPMI-8226; settings: Homo sapiens, RPMI-8226, read-out: EC50, RPMI-8226, 3H thymidine method, 72 h incubation
Description: as §1, §2, §5

[26] = test system: Raji; assay: 3H thymidine proliferation assay, Raji; settings: Homo sapiens, Raji, read-out: EC50, Raji, 3H thymidine method, 72 h incubation
Description: as §1, §2, §5

[27] = test system: OVCAR8/Adr; assay: ATP luminescence proliferation assay, OVCAR8/Adr; settings: 48 h incubation period, read-out: EC50 against the OVACAR8/Adr cell line
Description: as §1, §2, §4

[28] = test system: HCT-15; assay: ATP luminescence proliferation assay, HCT-15; settings: ATP luminescence, HCT-15, 72 h incubation; read-out: EC50 HCT-15 (72 h)
Description: as §1, §2, §4

[29] = test system: OVCAR3; assay: ATP luminescence proliferation assay, OVCAR3; settings: ATP luminescence, OVCAR3, 48 h incubation; read-out: EC50 OVCAR3 (48 h)
Description: as §1, §2, §4

[30] = test system: HL-60; assay: ATP luminescence proliferation assay, HL-60; settings: ATP luminescence, HL-60, 48 h incubation; read-out: EC50 HL-60 (48 h)
Description: as §1, §2, §3, §4

[31] = test system: H226; assay: ATP luminescence proliferation assay, H226; settings: 72 h incubation period, read-out: EC50 against the H226 cell line
Description: as §1, with “The EC50 values—the concentration at which an agent inhibits or reduces cell proliferation by 50% —were determined using PRISM™ software, version 4.0 (GraphPad Software, La Jolla, Calif., USA).” left out
as §2, with “(Not all compounds were assayed against all cell lines.)” left out

[32] = 72 h incubation, read-out: EC50 786-O (72 h)

CCOC(=O)C(C)C[C@H](Cc1ccc(N)cc1)NC(=O)c1csc([C@@H](C[C@H](C(C)C)N(COC(=O)CC(C)C)C(=O)[C@@H](NC(=O)[C@H]2CCCCN2C)[C@@H](C)CC)OC)n1 (stereo partly drawn) [Compound 133]
pEC50 [1, 32]: 8.38

CC[C@H](C)[C@H](NC(=O)[C@H]1CCCCN1C)C(=O)N(C)[C@H](C[C@@H](OC)c1nc(C(=O)N[C@@H](C)C(=O)N[C@@H](Cc2ccccc2)C(=O)OC)cs1)C(C)C [Compound 26a]
pEC50 [2]: < 7.00
pEC50 [3]: 7.44
pEC50 [4]: 7.10
pEC50 [5]: < 7.00
pEC50 [6]: < 7.00
pEC50 [7]: 7.15
pEC50 [8]: < 7.00
pEC50 [9]: < 7.00
pEC50 [10]: < 7.00
pEC50 [11]: < 7.00
pEC50 [12]: 8.15
pEC50 [13]: 7.33
pEC50 [14]: < 7.00
pEC50 [15]: < 7.00
pEC50 [16]: 8.49
pEC50 [17]: < 7.00
pEC50 [18]: 6.80
pEC50 [19]: 7.25
pEC50 [20]: 7.68
pEC50 [21]: 8.00
pEC50 [22]: 7.00
pEC50 [23]: 8.00
pEC50 [24]: 8.70
pEC50 [25]: 7.66
pEC50 [26]: 7.70

CC[C@H](C)[C@H](NC(=O)[C@H]1CCCCN1C)C(=O)N(C)[C@H](C[C@@H](OC(C)=O)c1nc(C(=O)N[C@@H](Cc2ccc(N)cc2)C[C@@H](C)C(=O)O)cs1)C(C)C [Compound 84b]
pEC50 [27]: 7.33
pEC50 [28]: 7.64
pEC50 ([1]; 48 h incubation, read-out: EC50 786-O (48 h)): 8.39
pEC50 [29]: 8.31
pEC50 [30]: 7.57 to 7.80

CC[C@H](C)[C@H](NC(=O)[C@H]1CCCCN1C)C(=O)N(C)[C@H](C[C@@H](OC(C)=O)c1nc(C(=O)N[C@@H](Cc2ccc(N)cc2)CC(C)C(=O)OC)cs1)C(C)C (stereo partly drawn) [Compound 36a]
pEC50 [31]: 9.51
pEC50 [27]: 7.77
pEC50 [1, 32]: 9.36
pEC50 [30]: 10.32

CCOC(=O)C(C)C[C@H](Cc1ccc(N)cc1)NC(=O)c1csc([C@@H](C[C@H](C(C)C)N(COC)C(=O)[C@@H](NC(=O)[C@H]2CCCCN2C)[C@@H](C)CC)OC)n1 (stereo partly drawn) [Compound 134]
pEC50 [1, 32]: 8.00
